Test: Residue neutralization: recovery and breakdown of pesticide and fungicide active ingredients after exposure to anolyte dilutions
Format: physicochemical
Conditions: 5 minutes, ambient temperature
Protocol: The breakdown of pesticide and fungicide residues by an oxidant ECA anolyte solution was evaluated as follows.
The oxidant anolyte solution was diluted using a 10 fold dilution series. As a control for this test, the potential for non-ECA based hydrolysis or chemical breakdown was assessed using two untreated control solutions, one being the tap water used as the diluent in the anolyte dilution series and the other being the non-activated brine solution that was used as the electrolysis feed solution prior to electro-activation.
The experiment was performed to contrast the difference in degree of recovery of a variety of pesticide and fungicide active ingredients (AI's) after the tap water and the various diluted anolyte solutions were ‘spiked’ with the same AI's at fixed inclusion rates. In each case, a one ppm cocktail of the active ingredients was added to a 100 ml aliquot of the test or control solution sample. The test samples were agitated with a mechanical stirrer for 5 minutes at ambient temperature and then extracted with an organic solvent and analyzed by either gas or liquid chromatography.

[1] = 0.25% Brine (nonactivated control)

CNC(=O)O/N=C/C(C)(C)SC [Aldicarb]
ng found [1]: 0.920 ng
% breakdown (1% Anolyte solution): 49.5%
ng found (1% Anolyte solution): 0.425 ng
% breakdown (10% anolyte solution): 100%
ng found (10% anolyte solution): 0.000 ng
% breakdown (100% anolyte solution): 100%
ng found (100% anolyte solution): 0.000 ng

CO/N=C(/C(=O)OC)c1ccccc1COc1ccccc1C [Kresoxim-methyl]
ng found [1]: 1.300 ng
% breakdown (1% Anolyte solution): 0.0%
ng found (1% Anolyte solution): 1.328 ng
% breakdown (10% anolyte solution): 0.0%
ng found (10% anolyte solution): 1.344 ng
% breakdown (100% anolyte solution): 100%
ng found (100% anolyte solution): 0.035 ng

CCCCc1c(C)nc(NCC)nc1OS(=O)(=O)N(C)C [Bupirimate]
ng found [1]: 1.250 ng
% breakdown (1% Anolyte solution): 0.0%
ng found (1% Anolyte solution): 1.233 ng
% breakdown (10% anolyte solution): 52.0%
ng found (10% anolyte solution): 0.730 ng
% breakdown (100% anolyte solution): 100%
ng found (100% anolyte solution): 0.074 ng

Cc1cc(C2CC2)nc(Nc2ccccc2)n1 [Cyprodinil]
ng found [1]: 1.297 ng
% breakdown (1% Anolyte solution): 0.0%
ng found (1% Anolyte solution): 1.356 ng
% breakdown (10% anolyte solution): 96.3%
ng found (10% anolyte solution): 0.068 ng
% breakdown (100% anolyte solution): 100%
ng found (100% anolyte solution): 0.026 ng

COP(=S)(OC)SCn1nnc2ccccc2c1=O [Azinphos-methyl]
ng found [1]: 2.341 ng
% breakdown (1% Anolyte solution): 0.0%
ng found (1% Anolyte solution): 2.393 ng
% breakdown (10% anolyte solution): 100%
ng found (10% anolyte solution): 0.000 ng
% breakdown (100% anolyte solution): 100%
ng found (100% anolyte solution): 0.000 ng

CNC(=O)O/N=C/C(C)(C)[S+](C)[O-] (stereo not shown) [Aldicarb sulfoxide]
ng found [1]: 0.672 ng
% breakdown (1% Anolyte solution): 15.8%
ng found (1% Anolyte solution): 0.514 ng
% breakdown (10% anolyte solution): 100%
ng found (10% anolyte solution): 0.000 ng
% breakdown (100% anolyte solution): 100%
ng found (100% anolyte solution): 0.000 ng

CCOP(=S)(OCC)Oc1nc(Cl)c(Cl)cc1Cl [Chlorpyrifos]
ng found [1]: 1.014 ng
% breakdown (1% Anolyte solution): 0.0%
ng found (1% Anolyte solution): 1.039 ng
% breakdown (10% anolyte solution): 100%
ng found (10% anolyte solution): 0.05 ng
% breakdown (100% anolyte solution): 100%
ng found (100% anolyte solution): 0.049 ng

CCCCNC(=O)n1c(NC(=O)OC)nc2ccccc21 [Benomyl]
ng found [1]: 0.970 ng
% breakdown (1% Anolyte solution): 8.0%
ng found (1% Anolyte solution): 0.890 ng
% breakdown (10% anolyte solution): 45%
ng found (10% anolyte solution): 0.520 ng
% breakdown (100% anolyte solution): 100%
ng found (100% anolyte solution): 0.000 ng

CNC(=O)ON=C(C)SC [Methomyl]
ng found [1]: 1.006 ng
% breakdown (1% Anolyte solution): 36.6%
ng found (1% Anolyte solution): 0.634 ng
% breakdown (10% anolyte solution): 100%
ng found (10% anolyte solution): 0.000 ng
% breakdown (100% anolyte solution): 100%
ng found (100% anolyte solution): 0.000 ng

CCOC(=O)CC(SP(=S)(OC)OC)C(=O)OCC (stereo not shown) [Malathion]
ng found [1]: 1,327 ng
% breakdown (1% Anolyte solution): 0.0%
ng found (1% Anolyte solution): 1.368 ng
% breakdown (10% anolyte solution): 100%
ng found (10% anolyte solution): 0.066 ng
% breakdown (100% anolyte solution): 100%
ng found (100% anolyte solution): 0.067 ng
